Results taken from patent EP0068563A2, “Heterocyclic acetic acid compounds and compositions for treating bone diseases” (THE PROCTER & GAMBLE COMPANY, priority 1981, dated 1983).

Tests used:
Fetal rat bone = assay: PGE2 stimulated in vitro bone resorption in the fetal long bone system (45Ca release); type: cell-based; conditions: versus control cultures; for inhibition at 390 µM: concentration 0.39 mM; for inhibition at 1560 µM: concentration 1.56 mM
Description: Fetal rat bone was cultured in the medium described in this reference. Bone resorption was stimulated by addition of prostaglandin, PGE2, and measured by the release of previously incorporated ^45Ca into the medium and by changes in the total bone calcium content.
PGE2 Stimulated Bone Resorption in the Fetal Long Bone System

[1] = tested on: Weanling male Sprague-Dawley derived rats; assay: in vivo periosteal and endosteal bone apposition rates and endosteal resorption rates (tetracycline/DCAF double label, tibial sections); set-up: EBAR (endosteal bone apposition rate) / ERR (endosteal resorption rate): unit not given here; conditions: for ERR (endosteal resorption rate) / EBAR (endosteal bone apposition rate) / P BAR (periosteal bone apposition rate): subcutaneous daily, 10 days, rat tibia; for ERR (endosteal resorption rate): control 3.6; for EBAR (endosteal bone apposition rate): control 4.0; for P BAR (periosteal bone apposition rate): control 14.7
Source text: The following test was used to establish in vivo periosteal and endosteal bone apposition rates and endosteal resorption rates. The test method is a modification of the method of Baylink, et al., J. Clin. Invest.
Weanling male Sprague-Dawley derived rats weighing 50-60 grams (Charles River Breeding Labs, Wilmington, Massachusetts) were allowed 2-3 days to adapt to the laboratory environment before receiving any treatment. Throughout the adaptation and experimental periods the animals were allowed free access to tap water and food (Purina Lab Rat Chow, Ralston Purina Company, St. Louis, Missouri).
On the first day of the experiment all animals were given a subcutaneous injection of tetracycline hydrochloride at a dose of 20 mg/kg to label the skeleton. Test compound and saline (control animals) treatments were also started on the first day of the experiment. They were given subcutaneously under skin flap where the rear legs join the body using alternating sides each day. Since these animals were rapidly growing, body weights were taken daily and dosage adjusted accordingly.
Seven days after the animals received tetracycline they were given a subcutaneous injection of (2,4 bis)N-N'-di (carboxymethyl)amino methylfluorescein (DCAF) at a dose of 20 mg/kg to provide a second skeletal label.
Ten days after treatments were initiated, the animals were sacrificed by carbon dioxide asphyxiation and their left and right tibias and femurs taken and placed in 70% ethanol until they were further processed.
The test comoounds were given as solutions preoared in distilled water, and the pH was adjusted to 7.4. Solution concentrations were adjusted so that constant volumes of 0.2 ml/100 grams of body weight could be maintained for all animals.
Dose volumes were […] of body weight.
DCAF, (2,4-bis)-N,N'di(carboxymethyl) amino methyl fluorescein, Nutritional Biochemicals Corporation, Cleveland, Ohio was given as a 1% solution in 2% sodium bicarbonate and 0.8% dextrose. This solution was filtered prior to administration to remove any undissolved particles. Dose volumes of the DCAF solution were 0.2 ml/100 grams of body weight.
The left tibiae were blocked stained with Villanueva's stain, embedded in methyl methacrylate and sectioned at 75-100 u. Cross sections were prepared from the shaft of the tibia where it is joined by the distal portion of the fibula.
These parameters were measured in tibial cross sections and in longitudinal sections through the proximal tibial epiphysis with a 5 mm micrometer which was superimposed optically over the section by placing it in the eyepiece of a microscope. Conversion of the values obtained to actual widths was established with a stage micrometer.
The width between fluorescent labels on the periosteal surface was established at 100x by making 4 measurements at 90. degree intervals around the circumference of the labeled area. Measurements were made from the middle of one label to the middle of' the next. A mean value was then established for each surface and multiplied times the conversion factor to obtain the actual distance in microns. Bone apposition rates were then calculated by dividing this value by the number of days over which the fluorescent labels were given (i.e. 7 days).
Endosteal bone apposition was established at 100x by making 4 measurements at equidistant points across the section from the bottom of the plate to the closest fluorescent label (the last label administered). A mean value was then established and multiplied times a conversion factor to obtain the actual distance in microns.
A mean value was then established and multiplied times a conversion factor to obtain the actual distance in microns. Bone resorption rates were calculated by dividing this value by number of days over which the experiment was conducted (i.e. 10 days).

Structure (SMILES)	inhibition at 390 µM (Fetal rat bone)	inhibition at 1560 µM (Fetal rat bone)	ERR (endosteal resorption rate) ([1]; dose 5 uM)	EBAR (endosteal bone apposition rate) ([1]; dose 5 uM)	P BAR (periosteal bone apposition rate) ([1]; dose 5 uM)	ERR (endosteal resorption rate) ([1]; dose 16 uM)	EBAR (endosteal bone apposition rate) ([1]; dose 16 uM)	P BAR (periosteal bone apposition rate) ([1]; dose 16 uM)	ERR (endosteal resorption rate) ([1]; dose 80 uM)	EBAR (endosteal bone apposition rate) ([1]; dose 80 uM)	P BAR (periosteal bone apposition rate) ([1]; dose 80 uM)	bone resorption (conclusion in words) ([1]; summary of the rat test table)
COc1ccc2[nH]c(C(=O)O)cc2c1 [5-Methoxyindole-2-Carboxylic Acid]	47.5%	80.1%	–	–	–	–	–	–	–	–	–	–
O=C(O)c1cccs1 [Thiophene-2-Carboxylic Acid, reference compound]	43%	47.8%	–	–	–	–	–	–	–	–	–	–
O=C(O)Cc1cccs1 [Thiophene-2-Acetic Acid]	47.8%	107%	–	–	–	–	–	–	–	–	–	–
O=C(O)Cc1nc2ccccc2[nH]1 [BMZAA, benzimidazole-2-acetic acid]	–	–	1.0	3.8	15.5	1.5	3.4	18.1	–	–	–	–
O=P(O)(O)C(Cl)(Cl)P(=O)(O)O [Cl2MDP, dichloro-methylene-diphosphonate]	–	–	–	–	–	1.3	3.2	14.8	0	3.1	14.8	–
O=C(O)Cc1cc2ccccc2s1 [BTAA, benzothiophene-2-acetic acid]	–	–	1.2	3.5	16.0	0.9	3.9	18.1	–	–	–	–
O=C(O)c1cc2ccccc2s1 [BTCA, benzothiophene-2-carboxylic acid]	–	–	2.9	3.5	18.2	3.3	3.4	16.2	–	–	–	does not significantly reduce bone resorption
